The values below come from patent US9738848B2, “Polyfunctional lubricant composition” (priority 2013, dated 2017).

Series [1] concerns Larval medaka (Oryzias latipes). The conditions noted are these: cited from earlier work.
Another series concerns Rainbow trout. The conditions noted are these: cited from earlier work.
A short description of series [2]: Hydrolyzability test (acid value after storage with water). The conditions noted are these: 1 mass percent water, 60° C. The format is physicochemical. The method, then: 1 Mass percent of water was added to phosphorus compounds and the mixture was stored in a thermostat at 60° C. The compounds were evaluated for hydrolyzability by measuring an acid value at each number of days elapsed.

For Triisopropyl phenyl phosphate, in series [1], the “Larval medaka (Oryzias latipes) acute toxicity 96h-LC50” value (“Larval medaka” below) was above 100 µg/mL. Further, in the series with Rainbow trout, the “Rainbow trout acute toxicity 96h-LC50” value is 1.6 µg/mL. Consider Tricresyl phosphate, for which the “Larval medaka” value in series [1] is 0.84 µg/mL. `O=P(Oc1ccccc1)(Oc1ccccc1)Oc1ccccc1` [Triphenyl phosphate]: in series [1], the “Larval medaka” value was 1.3 µg/mL. Further, the “Hydrolyzability (acid value over days elapsed)” value in series [2] is “high hydrolyzability”.
